Results: paper PMC12155096 (International Journal of Molecular Sciences, 2025)
Like-named read-outs stand apart in the source and are kept apart here.

Key:
human CYP1A2 [1] = biological target: T1, human CYP1A2 (Homo sapiens, UniProt P05177)
T1 sequence (P05177 1-516): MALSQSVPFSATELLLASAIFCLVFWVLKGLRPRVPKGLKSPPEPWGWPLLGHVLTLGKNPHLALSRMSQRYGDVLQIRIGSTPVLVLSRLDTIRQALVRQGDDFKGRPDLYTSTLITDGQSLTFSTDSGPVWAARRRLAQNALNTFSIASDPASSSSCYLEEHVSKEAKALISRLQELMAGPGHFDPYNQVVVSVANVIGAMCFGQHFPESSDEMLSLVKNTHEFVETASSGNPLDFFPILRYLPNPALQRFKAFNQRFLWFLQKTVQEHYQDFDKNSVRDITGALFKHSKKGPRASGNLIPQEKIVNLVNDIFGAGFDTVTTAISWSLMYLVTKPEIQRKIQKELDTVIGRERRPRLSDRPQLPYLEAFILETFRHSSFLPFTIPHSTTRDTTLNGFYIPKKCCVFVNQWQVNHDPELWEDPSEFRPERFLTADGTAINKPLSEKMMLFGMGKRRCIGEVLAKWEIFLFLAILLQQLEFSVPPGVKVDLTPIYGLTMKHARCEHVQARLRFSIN

human CYP2C9 [2] = biological target: T2, human CYP2C9 (Homo sapiens, UniProt P11712)
T2 sequence (P11712 whole entry): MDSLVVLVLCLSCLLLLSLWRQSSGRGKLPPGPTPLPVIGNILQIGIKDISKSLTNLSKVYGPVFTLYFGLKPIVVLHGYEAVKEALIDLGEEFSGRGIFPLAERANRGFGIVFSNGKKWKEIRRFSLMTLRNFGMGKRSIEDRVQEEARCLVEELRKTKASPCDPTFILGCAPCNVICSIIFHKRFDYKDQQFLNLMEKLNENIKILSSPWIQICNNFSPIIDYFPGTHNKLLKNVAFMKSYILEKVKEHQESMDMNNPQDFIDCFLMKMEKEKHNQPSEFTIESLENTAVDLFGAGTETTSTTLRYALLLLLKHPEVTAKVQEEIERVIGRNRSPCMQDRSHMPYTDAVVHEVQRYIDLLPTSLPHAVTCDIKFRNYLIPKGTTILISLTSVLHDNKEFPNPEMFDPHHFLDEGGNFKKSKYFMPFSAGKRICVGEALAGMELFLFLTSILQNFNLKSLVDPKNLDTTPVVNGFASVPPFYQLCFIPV

human CYP2C19 [3] = biological target: T3, human CYP2C19 (Homo sapiens, UniProt P33261)
T3 sequence (P33261 whole entry): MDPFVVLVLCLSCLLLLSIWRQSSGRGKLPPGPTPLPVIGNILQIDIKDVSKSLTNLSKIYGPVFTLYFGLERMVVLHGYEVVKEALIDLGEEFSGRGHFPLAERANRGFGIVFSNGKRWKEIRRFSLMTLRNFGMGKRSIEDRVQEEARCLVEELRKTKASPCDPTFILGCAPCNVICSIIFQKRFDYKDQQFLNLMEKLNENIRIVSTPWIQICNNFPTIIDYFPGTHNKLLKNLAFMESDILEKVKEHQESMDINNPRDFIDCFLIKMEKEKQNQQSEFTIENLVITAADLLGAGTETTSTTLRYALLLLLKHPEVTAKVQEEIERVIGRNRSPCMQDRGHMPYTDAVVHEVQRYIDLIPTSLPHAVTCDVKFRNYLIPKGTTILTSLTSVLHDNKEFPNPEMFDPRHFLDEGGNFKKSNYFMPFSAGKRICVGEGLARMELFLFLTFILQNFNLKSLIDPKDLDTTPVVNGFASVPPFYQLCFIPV

CYP3A4 = CYP3A4 (Homo sapiens, UniProt P08684)
Chain of CYP3A4 (P08684 whole entry): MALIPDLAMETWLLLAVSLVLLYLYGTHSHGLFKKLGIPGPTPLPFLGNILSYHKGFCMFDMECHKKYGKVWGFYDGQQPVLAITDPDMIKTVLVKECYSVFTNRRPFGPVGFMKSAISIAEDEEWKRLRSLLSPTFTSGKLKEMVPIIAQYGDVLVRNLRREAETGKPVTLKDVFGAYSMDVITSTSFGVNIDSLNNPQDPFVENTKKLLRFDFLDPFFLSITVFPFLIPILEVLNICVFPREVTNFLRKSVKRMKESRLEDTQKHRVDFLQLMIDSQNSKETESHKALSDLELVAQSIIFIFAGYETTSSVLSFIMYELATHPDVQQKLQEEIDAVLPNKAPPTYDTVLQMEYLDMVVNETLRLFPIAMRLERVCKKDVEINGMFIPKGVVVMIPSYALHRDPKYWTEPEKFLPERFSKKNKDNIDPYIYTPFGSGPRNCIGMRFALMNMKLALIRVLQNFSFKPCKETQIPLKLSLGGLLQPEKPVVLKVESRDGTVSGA

human CYP2D6 = human CYP2D6 (Homo sapiens, UniProt P10635)
Chain of human CYP2D6 (P10635 whole entry): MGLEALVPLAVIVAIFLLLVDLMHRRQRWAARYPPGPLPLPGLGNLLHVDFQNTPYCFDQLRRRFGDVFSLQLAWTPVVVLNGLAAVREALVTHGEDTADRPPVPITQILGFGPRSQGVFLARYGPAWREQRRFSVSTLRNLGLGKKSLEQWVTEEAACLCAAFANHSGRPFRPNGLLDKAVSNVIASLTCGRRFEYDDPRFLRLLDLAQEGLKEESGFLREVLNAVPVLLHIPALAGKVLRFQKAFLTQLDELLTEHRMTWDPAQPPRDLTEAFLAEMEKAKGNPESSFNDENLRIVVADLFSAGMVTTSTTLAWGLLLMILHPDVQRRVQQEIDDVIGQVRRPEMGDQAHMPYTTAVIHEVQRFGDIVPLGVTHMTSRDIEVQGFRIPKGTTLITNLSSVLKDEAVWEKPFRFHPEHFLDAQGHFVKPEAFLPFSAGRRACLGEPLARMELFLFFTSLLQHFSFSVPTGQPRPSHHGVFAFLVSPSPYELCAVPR

human CYP2C9 [4] = biological target: T2, human CYP2C9; test: biochemical
human CYP2C19 [5] = biological target: T3, human CYP2C19; test: biochemical
human CYP1A2 [6] = biological target: T1, human CYP1A2; test: biochemical
[7] = CYP1A2 AC50 (half-maximal activity concentration)
[8] = CYP2C9 AC50 (half-maximal activity concentration)
[9] = CYP2C19 AC50 (half-maximal activity concentration)

Row | Structure (SMILES) | AC50 (human CYP1A2 [1]) | AC50 (human CYP2C9 [2]) | AC50 (human CYP2C19 [3]) | AC50 (CYP3A4) | CYP2D6 AC50 (half-maximal activity concentration) (human CYP2D6) | CYP2C19 AC50 (half-maximal activity concentration) (human CYP2C19 [3]) | further results
1 | CC(C)(C)C(=O)C=Cc1ccc(Cl)cc1 | 21.2 µM | 54 µM | 6.98 µM | 20 µM | Inactive |  | 
2 | CC(=O)c1cc(C(C)(C)C)cc2c1CCC2(C)C | 34.4 µM | 27.6 µM |  | 10.5 µM | Inactive | Inconclusive | 
3 | Cl.O.c1cnc2c(c1)ccc1cccnc12 | 10.6 µM | 4.59 µM | 8.94 µM | 38.5 µM |  |  | AC50 (human CYP2D6): 38.5 µM
4 | CC(C)(C)C1=CC(=O)C(C(C)(C)C)=CC1=O | 16.1 µM | 20.8 µM | 7.8 µM | 6.47 µM | Inconclusive inhibitor |  | 
5 | O=S1(=O)CC(Cl)(Cl)C(Cl)(Cl)C1 | 31.2 µM | 27.5 µM | 60.4 µM | 30.8 µM |  |  | AC50 (human CYP2D6): 48.8 µM
6 | CC(C)(c1ccc(Oc2ccc3c(c2)C(=O)OC3=O)cc1)c1ccc(Oc2ccc3c(c2)C(=O)OC3=O)cc1 | 63.2 µM |  |  | 23.4 µM |  | Inconclusive inhibitor | CYP2C9 AC50 (half-maximal activity concentration) (human CYP2C9 [2]): Inconclusive inhibitor; AC50 (human CYP2D6): 37.9 µM
7 | Cl.Nc1c2ccccc2nc2ccccc12.O | 2.13 µM | 28.8 µM |  |  |  | Inconclusive activator | CYP3A4 AC50 (half-maximal activity concentration) (CYP3A4): Inactive; AC50 (human CYP2D6): 12.9 µM
8 | CCCOC(=O)c1c(Cl)c(Cl)c(Cl)c(Cl)c1C(=O)OCCC | 1.72 µM | 20.1 µM | 12.5 µM | 2.63 µM | Inconclusive inhibitor |  | 
9 | CCOC(=O)CC(=O)Cc1cc(F)c(Cl)nc1Cl | 65.1 µM | 46.3 µM |  | 49.1 µM | Inactive | Inconclusive inhibitor | 
10 | CCOC(=O)N1CCC(n2c(=O)[nH]c3cc(Cl)ccc32)CC1 | 22.6 µM | 9.24 µM | 16.6 µM | 6.72 µM | Inactive |  | 
11 | C=C(C)C(=O)OCCOc1ccccc1 | 24.5 µM | 38.6 µM | 28.6 µM | 19.8 µM | Inactive |  | 
12 | C=C(C)C(=O)OCC[N+](C)(C)C.[Cl-] | 10.5 µM |  |  | 23.4 µM | Inactive | Inactive | CYP2C9 AC50 (half-maximal activity concentration) (human CYP2C9 [2]): Inactive
13 | O=[N+]([O-])c1cccc2cccc([N+](=O)[O-])c12 [1,8-Dinitronaphthalene] |  |  |  |  | Inconclusive inhibitor |  | CYP3A4 AC50 (half-maximal activity concentration) (CYP3A4): Inconclusive inhibitor
14 | Cc1cc(O)c(Cl)c(C)c1Cl [2,4-Dichloro-3,5-dimethylphenol] |  |  |  |  | Inactive |  | AC50 (human CYP2C9 [4]): 9.3 µM; AC50 (human CYP2C19 [5]): 71.9 µM; AC50 (human CYP1A2 [6]): 14.4 µM
15 | Brc1ccccc1-c1ccccc1 [2-Bromobiphenyl] |  |  |  |  |  |  | AC50 (human CYP1A2 [6]; [7]): 17 µM
16 | O=S(=O)(c1ccc(O)cc1)c1ccc(O)cc1 [4,4'-Sulfonyldiphenol] |  |  |  |  | Inactive |  | CYP1A2 AC50 (half-maximal activity concentration) (human CYP1A2 [1]): Inconclusive inhibitor; CYP3A4 AC50 (half-maximal activity concentration) (CYP3A4): Inactive; AC50 (human CYP2C9 [4]; [8]): 1.34 µM; AC50 (human CYP2C19 [5]; [9]): 16.4 µM
17 | CC(=O)c1ccc(O)cc1 [4-Hydroxyacetophenone] |  |  |  |  | Inactive | Inactive | CYP1A2 AC50 (half-maximal activity concentration) (human CYP1A2 [1]): Inconclusive inhibitor; CYP3A4 AC50 (half-maximal activity concentration) (CYP3A4): Inactive; AC50 (human CYP2C9 [4]): 36.2 µM
18 | CCc1oc2ccccc2c1C(=O)c1cc(Br)c(O)c(Br)c1 [Benzbromarone] |  |  |  |  |  |  | AC50 (human CYP1A2 [6]; [7]): 28.9 µM
19 | O=C(c1ccccc1)c1ccccc1 [Benzophenone] |  |  |  |  |  |  | AC50 (human CYP2C9 [4]; [8]): 28.4 µM; AC50 (human CYP1A2 [6]; [7]): 13.7 µM
20 | O=C(OCc1ccccc1)c1ccccc1 [Benzyl benzoate] |  |  |  |  |  |  | AC50 (human CYP2C9 [4]; [8]): 27.7 µM; AC50 (human CYP2C19 [5]; [9]): 21.3 µM; AC50 (human CYP1A2 [6]; [7]): 14.9 µM
21 | NS(=O)(=O)c1cc2c(cc1Cl)CN(C1CCCCC1)C2=O [Chlorexolone] |  |  |  |  | Inactive | Inconclusive activator | CYP1A2 AC50 (half-maximal activity concentration) (human CYP1A2 [1]): Inactive; CYP3A4 AC50 (half-maximal activity concentration) (CYP3A4): Inactive; AC50 (human CYP2C9 [4]; [8]): 14.4 µM
22 | O=C(Nc1ccc(Cl)c(Cl)c1)C1CC1 [Cypromid] |  |  |  |  |  |  | CYP1A2 Efficacy (in parenthesis) (human CYP1A2 [1]; human): 0.54 ± 0.08 (-97 ± 6) %; CYP2C9 Efficacy (in parenthesis) (human CYP2C9 [2]; human): 25.27 ± 7.04 (-70 ± 11) %; CYP2C19 Efficacy (in parenthesis) (human CYP2C19 [3]; human): 12.07 ± 3.02 (-106 ± 21) %; IC50 (human CYP2C9 [4]; CYP2C9 IC50 (half-maximal inhibitory concentration)): 25.3 µM; IC50 (human CYP2C19 [5]; CYP2C19 IC50 (half-maximal inhibitory concentration)): 12.1 µM; IC50 (human CYP1A2 [6]; CYP1A2 IC50 (half-maximal inhibitory concentration)): 0.54 µM
